Measurements published in US20250312469A1 (CANGET BIOTEKPHARMA, priority 2024, published 2025).
Like-named read-outs stand apart in the source and are kept apart here. Marks after values point to notes of the source that are not given here.

[1] = male rats, Group 2, 3 mg/kg/wk, Day 15, vs Group 1
[2] = male rats, Group 3, 3.75/2.5 mg/kg/wk oral, Day 15
[3] = male rats, Group 3, 3.75/2.5 mg/kg/wk, Day 15
[4] = male rats, Group 3, 3.75/2.5 mg/kg/wk, Day 15, vs Group 1
[5] = male rats, Group 4, 4.69/2 mg/kg/wk oral, Day 15, N 2, vs vehicle Group 1
[6] = male rats, Group 4, 4.69/2 mg/kg/wk, Day 15, vs Group 1

CCC1(O)C(=O)OCc2c1cc1n(c2=O)Cc2cc3cc4c(cc3nc2-1)OCO4 (stereo not drawn) [FL118]
#EOS % Diff [1]: −43.40% | #LYMP % Diff [1]: −13.38% | #MONO % Diff [1]: −25.17% | #NEUT % Diff [1]: −34.07% | #RET % Diff [1]: 53.1% | % BASO % Diff [1]: −8.3% | % EOS % Diff [1]: −35.2% | % LYMP % Diff [1]: 3.7% | % MONO % Diff [1]: −6.6% | % NEUT % Diff [1]: −24.1% | % RET % Diff [1]: 62.09% | HCT % Diff [1]: −8.0% | HGB % Diff [1]: −8.9% | MCHC % Diff [1]: −0.8% | MCV % Diff [1]: −2.7% | MPV % Diff [1]: −2.7% | PLT % Diff [1]: 14% | RDW % Diff [1]: 15.7% | WBC % Diff [1]: −16.11% | ALB, albumin, Mean [2]: 34.1 g/L | ALP, alkaline phosphatase, Mean [2]: 113 U/L | ALT, alanine aminotransferase, Mean [2]: 47 U/L | AST, aspartate aminotransferase, Mean [2]: 104 U/L | BIL-T, total bilirubin, Mean [2]: 1.83 | CK, creatine kinase, Mean [2]: 296 U/L | CRE, creatinine, Mean [2]: 19 µmol/L | Ca, calcium, Mean [2]: 2.41 mmol/L | GLB, globulin, Mean [2]: 22.0 g/L | K, potassium, Mean [2]: 5.0 mmol/L | Na, sodium, Mean [2]: 143 mmol/L | P, inorganic phosphorus, Mean [2]: 2.38 mmol/L | TCHO, total cholesterol, Mean [2]: 1.73* mmol/L | TG, triglyceride, Mean [2]: 0.33 mmol/L | TP, total protein, Mean [2]: 56.1 g/L | UREA, urea, Mean [2]: 5.60 mmol/L | sGLU, glucose, Mean [2]: 10.18 mmol/L | #BASO Mean [3]: 0.02 10^3/μL | #EOS Mean [3]: 0.07 10^3/μL | #LYMP Mean [3]: 8.02 10^3/μL | #MONO Mean [3]: 0.23 10^3/μL | #NEUT Mean [3]: 1.04 10^3/μL | #RET Mean [3]: 342.9 10^9/L | % BASO Mean [3]: 0.2% | % EOS Mean [3]: 0.8% | % LYMP Mean [3]: 84.7% | % MONO Mean [3]: 2.4% | % NEUT Mean [3]: 11.2% | % RET Mean [3]: 4.74% | HCT Mean [3]: 42.3* % | HGB Mean [3]: 13.8** g/dL | MCH Mean [3]: 19.0 pg | MCHC Mean [3]: 32.6 g/dL | MCV Mean [3]: 58.2 fL | MPV Mean [3]: 6.5 fL | PLT Mean [3]: 1129 10^3/μL | RDW Mean [3]: 14.1*** % | WBC Mean [3]: 9.43 10^3/μL | #EOS % Diff [4]: −30.19% | #LYMP % Diff [4]: −12.51% | #MONO % Diff [4]: −18.88% | #NEUT % Diff [4]: −4.40% | #RET % Diff [4]: 55.7% | % EOS % Diff [4]: −22.2% | % LYMP % Diff [4]: −0.4% | % MONO % Diff [4]: −10.3% | % NEUT % Diff [4]: 7.9% | % RET % Diff [4]: 64.10% | HCT % Diff [4]: −7.5% | HGB % Diff [4]: −8.6% | MCHC % Diff [4]: −1.3% | MCV % Diff [4]: −2.9% | PLT % Diff [4]: 10% | RDW % Diff [4]: 20.5% | WBC % Diff [4]: −11.98% | ALB, albumin, % Diff [5]: −28.9% | ALP, alkaline phosphatase, % Diff [5]: −45% | ALT, alanine aminotransferase, % Diff [5]: 27.5% | AST, aspartate aminotransferase, % Diff [5]: 1.54% | BIL-T, total bilirubin, % Diff [5]: 187.51% | CK, creatine kinase, % Diff [5]: 13% | CRE, creatinine, % Diff [5]: −3% | Ca, calcium, % Diff [5]: −15.35% | Cl, chloride, % Diff [5]: −3% | K, potassium, % Diff [5]: 2.6% | Na, sodium, % Diff [5]: −1% | P, inorganic phosphorus, % Diff [5]: −13.59% | TCHO, total cholesterol, % Diff [5]: 9.81% | TG, triglyceride, % Diff [5]: 52.32% | TP, total protein, % Diff [5]: −33.1% | UREA, urea, % Diff [5]: 71.64% | sGLU, glucose, % Diff [5]: −50.96% | #BASO % Diff [6]: −58.33% | #EOS % Diff [6]: −95.28% | #LYMP % Diff [6]: −57.17% | #MONO % Diff [6]: −0.35% | #NEUT % Diff [6]: −19.87% | #RET % Diff [6]: −87.2% | % BASO % Diff [6]: −37.5% | % EOS % Diff [6]: −95.4% | % LYMP % Diff [6]: −11.9% | % MONO % Diff [6]: 76.5% | % NEUT % Diff [6]: 88.7% | % RET % Diff [6]: −87.53% | HCT % Diff [6]: 1.7% | HGB % Diff [6]: 7.1% | MCHC % Diff [6]: 5.4% | MCV % Diff [6]: −6.8% | MPV % Diff [6]: −5.3% | PLT % Diff [6]: −11% | RBC % Diff [6]: 8.98% | RDW % Diff [6]: 4.3% | WBC % Diff [6]: −52.17% | NOAEL, females (oral, once weekly): 3 mg/kg/wk | NOAEL, males (oral, once weekly): 2 mg/kg/wk
